Results as given in patent US20250296971A1, “GASTRIC INHIBITORY PEPTIDE RECEPTOR LIGANDS” (priority 2021, published 2025).
*1 amine or outer side, *2 acyl side, *3 side chain or, on linkers, in order; H or OH if unused. Where a SMILES comes first, the peptide text is derived from it. Bridges are numbered along the chain shown (N, C = ends). Side-chain parts run from the residue outwards. [ ]: non-standard residue; d: D form. The star is where a group is joined. NH(1-deoxy-D-glucityl) = OC[C@@H](O)[C@@H](O)[C@H](O)[C@@H](O)CN*; DOTA = O=C(O)CN1CCN(CC(=O)O)CCN(CC(=O)*)CCN(CC(=O)O)CC1; Trp(5-Br) = N[C@@H](Cc1c[nH]c2ccc(Br)cc12)C(=O)O; Trp(5-Cl) = N[C@@H](Cc1c[nH]c2ccc(Cl)cc12)C(=O)O; Pyridine(2,6-diCH2) = c1cc(C[*:1])nc(C[*:2])c1; Pro(4R-NH2) = N[C@H]1CN[C@H](C(=O)O)C1; Glutaryl = O=C(CCCC(=O)[*:2])[*:1]; X1 = O=C(CN1CCC(N[*:1])CC1)[*:2]; hSer = N[C@@H](CCO)C(=O)O; Api = NC1(C(=O)O)CCNCC1; Thp = NC1(C(=O)O)CCOCC1; AEEA = NCCOCCOCC(=O)O

target: T1, GIPR (CHO-K1-hGIPR cells) (Homo sapiens, UniProt P48546); assay: FACS binding assay; settings: competition with 20 nM GIP-057, 4° C., 1 hour, read-out: pIC50 Category (converted)
T1 construct: host or cells: CHO-K1
T1 sequence (P48546 22-466): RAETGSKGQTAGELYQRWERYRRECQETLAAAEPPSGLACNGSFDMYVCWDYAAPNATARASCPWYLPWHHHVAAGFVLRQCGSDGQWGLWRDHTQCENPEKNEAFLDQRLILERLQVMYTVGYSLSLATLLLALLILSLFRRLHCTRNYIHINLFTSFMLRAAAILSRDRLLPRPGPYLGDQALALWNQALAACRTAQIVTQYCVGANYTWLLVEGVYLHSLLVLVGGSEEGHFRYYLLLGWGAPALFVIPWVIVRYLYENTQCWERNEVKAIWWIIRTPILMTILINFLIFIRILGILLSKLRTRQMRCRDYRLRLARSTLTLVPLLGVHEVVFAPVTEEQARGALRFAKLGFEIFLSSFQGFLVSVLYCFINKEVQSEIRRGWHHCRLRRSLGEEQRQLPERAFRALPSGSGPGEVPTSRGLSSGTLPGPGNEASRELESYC
Protocol: In order to determine binding of compounds according to the present invention to GIPR-expressing cells, a FACS binding assay was established.
CHO-K1-hGIPR cells (GenScript Biotech, #M00486) were cultured in Ham's F12 medium (Sigma-Aldrich, #N4888) including 10% fetal calf serum (FCS), 2 mM L-glutamine, 100 U/mL penicillin, 100 μg/mL streptomycin, 200 μg/mL Zeocin and 100 μg/mL HygromycinB. Cells were detached with Accutase (Biolegend, #BLD-423201) and washed in FACS buffer (PBS including 1% FCS). Cells were diluted in FACS buffer to a final concentration of 500.000 cells per mL. 200 μL of the cell suspension were transferred to a u-shaped non-binding 96-well plate (Greiner) and cells were washed in ice-cold FACS buffer.
Cells were washed twice in FACS buffer. An additional incubation step with 1 μg/mL APC-Streptavidin (Miltenyi; #130-106-791) in 50 μL FACS buffer for 30 min on ice was performed followed by two washes with FACS buffer.
Cells were analyzed in an Attune NxT flow cytometer. Median fluorescence intensities (MFI) of the APC/Cy5-channel were calculated by Attune NxT software. MFI values were plotted against peptide concentration and four parameter logistic (4PL) curve fitting and EC50/pEC50 or IC50/pIC50 calculations were performed using ActivityBase software.

Row | IC50 [nM] | SMILES
1 | < 10 | CC[C@H](C)[C@@H]1NC(=O)[C@H](CC(C)C)NC(=O)C2(CCN(C(=O)CCCC(=O)NC[C@H](O)[C@@H](O)[C@H](O)[C@H](O)CO)CC2)NC(=O)[C@@H](NC(=O)[C@@H](CC(C)C)NC(=O)[C@H](CCC(=O)O)NC(=O)[C@@H]2C[C@@H](N)CN2C(=O)[C@H](Cc2c[nH]c3ccc(Cl)cc23)NC(=O)[C@H](Cc2c[nH]c3ccccc23)NC(=O)[C@H](CC(=O)O)NC(=O)COCCOCCNC(=O)[C@@H](CCC(=O)NC[C@H](O)[C@@H](O)[C@H](O)[C@H](O)CO)NC(=O)CN2CCN(CC(=O)O)CCN(CC(=O)O)CCN(CC(=O)O)CC2)CSCc2cccc(n2)CSC[C@@H](C(=O)NC2CCN(CC(=O)N[C@H](CCC(=O)NC[C@H](O)[C@@H](O)[C@H](O)[C@H](O)CO)C(N)=O)CC2)NC1=O [GIP-009, DOTA-glu(AGLU)-O2Oc-Asp-Trp-5Clw-Tap-Glu-leu-[Cys(2Lut)-Apc(AGLU-Glutar)-Leu-Ile-Cys]-APAc-glu(AGLU)-NH2] ({DOTA}-[dE](NH(1-deoxy-D-glucityl))[AEEA]DW[Trp(5-Cl)][Pro(4R-NH2)]E[dL]C[Api]([Glutaryl-NH(1-deoxy-D-glucityl)])LIC[X1][dE](NH(1-deoxy-D-glucityl))-NH2; linker 9-13 via Pyridine(2,6-diCH2))
2 | < 10 | CC[C@H](C)[C@@H]1NC(=O)[C@H](CC(C)C)NC(=O)C2(CCN(C(=O)CCCC(=O)NC[C@H](O)[C@@H](O)[C@H](O)[C@H](O)CO)CC2)NC(=O)[C@@H](NC(=O)[C@@H](CC(C)C)NC(=O)[C@H](CCC(=O)O)NC(=O)[C@@H]2C[C@@H](N)CN2C(=O)[C@H](Cc2c[nH]c3ccc(Cl)cc23)NC(=O)[C@H](Cc2c[nH]c3ccccc23)NC(=O)[C@H](CC(=O)O)NC(=O)CN2CCC(NC(=O)CN3CCN(CC(=O)O)CCN(CC(=O)O)CCN(CC(=O)O)CC3)CC2)CSCc2cccc(n2)CSC[C@@H](C(=O)NC2CCN(CC(=O)N[C@H](CCC(=O)NC[C@H](O)[C@@H](O)[C@H](O)[C@H](O)CO)C(N)=O)CC2)NC1=O [GIP-012, DOTA-APAc-Asp-Trp-5Clw-Hyp-Glu-leu-[Cys(2Lut)-Apc(AGLU-Glutar)-Leu-Ile-Cys]-APAc-glu(AGLU)-NH2] ({DOTA}-[X1]DW[Trp(5-Cl)][Pro(4R-NH2)]E[dL]C[Api]([Glutaryl-NH(1-deoxy-D-glucityl)])LIC[X1][dE](NH(1-deoxy-D-glucityl))-NH2; linker 8-12 via Pyridine(2,6-diCH2))
3 | < 10 | CC[C@H](C)[C@@H]1NC(=O)[C@H](CC(C)C)NC(=O)C2(CCN(C(=O)CN3CCN(CC(=O)O)CCN(CC(=O)O)CCN(CC(=O)O)CC3)CC2)NC(=O)[C@@H](NC(=O)[C@@H](CC(C)C)NC(=O)[C@H](CCC(=O)O)NC(=O)[C@@H]2C[C@@H](N)CN2C(=O)[C@H](Cc2c[nH]c3ccc(Cl)cc23)NC(=O)[C@H](Cc2c[nH]c3ccccc23)NC(=O)[C@H](CC(=O)O)NC(=O)CN2CCC(NC(=O)CCCC(=O)NC[C@H](O)[C@@H](O)[C@H](O)[C@H](O)CO)CC2)CSCc2cccc(n2)CSC[C@@H](C(=O)NC2CCN(CC(=O)N[C@H](CCC(=O)NC[C@H](O)[C@@H](O)[C@H](O)[C@H](O)CO)C(N)=O)CC2)NC1=O [GIP-013, AGLU-Glutar-APAc-Asp-Trp-5Clw-Tap-Glu-leu-[Cys(2Lut)-Apc(DOTA)-Leu-Ile-Cys]-APAc-glu(AGLU)-NH2] ({NH(1-deoxy-D-glucityl)-Glutaryl}-[X1]DW[Trp(5-Cl)][Pro(4R-NH2)]E[dL]C[Api](DOTA)LIC[X1][dE](NH(1-deoxy-D-glucityl))-NH2; linker 8-12 via Pyridine(2,6-diCH2))
4 | < 10 | CC[C@H](C)[C@@H]1NC(=O)[C@H](CC(C)C)NC(=O)C2(CCN(C(=O)CN3CCN(CC(=O)O)CCN(CC(=O)O)CCN(CC(=O)O)CC3)CC2)NC(=O)[C@@H](NC(=O)[C@@H](CC(C)C)NC(=O)[C@H](CCC(=O)O)NC(=O)[C@@H]2C[C@@H](N)CN2C(=O)[C@H](Cc2c[nH]c3ccc(Br)cc23)NC(=O)[C@H](Cc2c[nH]c3ccccc23)NC(=O)[C@H](CC(=O)O)NC(=O)CCCC(=O)NC[C@H](O)[C@@H](O)[C@H](O)[C@H](O)CO)CSCc2cccc(n2)CSC[C@@H](C(=O)NC2CCN(CC(=O)N[C@H](CCC(=O)NC[C@H](O)[C@@H](O)[C@H](O)[C@H](O)CO)C(N)=O)CC2)NC1=O [GIP-015, AGLU-Glutar-Asp-Trp-5Brw-Tap-Glu-leu-[Cys(2Lut)-Apc(DOTA)-Leu-Ile-Cys]-APAc-glu(AGLU)-NH2] ({NH(1-deoxy-D-glucityl)-Glutaryl}-DW[Trp(5-Br)][Pro(4R-NH2)]E[dL]C[Api](DOTA)LIC[X1][dE](NH(1-deoxy-D-glucityl))-NH2; linker 7-11 via Pyridine(2,6-diCH2))
5 | < 10 | CC[C@H](C)[C@@H]1NC(=O)[C@H](CC(C)C)NC(=O)C2(CCN(C(=O)CN3CCN(CC(=O)O)CCN(CC(=O)O)CCN(CC(=O)O)CC3)CC2)NC(=O)[C@@H](NC(=O)[C@@H](CC(C)C)NC(=O)[C@H](CCC(=O)O)NC(=O)[C@@H]2C[C@@H](N)CN2C(=O)[C@H](Cc2c[nH]c3ccc(Br)cc23)NC(=O)[C@H](Cc2c[nH]c3ccccc23)NC(=O)[C@H](CCO)NC(=O)CCCC(=O)NC[C@H](O)[C@@H](O)[C@H](O)[C@H](O)CO)CSCc2cccc(n2)CSC[C@@H](C(=O)NC2CCN(CC(=O)N[C@H](CCC(=O)NC[C@H](O)[C@@H](O)[C@H](O)[C@H](O)CO)C(N)=O)CC2)NC1=O [GIP-016, AGLU-Glutar-Hse-Trp-5Brw-Tap-Glu-leu-[Cys(2Lut)-Apc(DOTA)-Leu-Ile-Cys]-APAc-glu(AGLU)-NH2] ({NH(1-deoxy-D-glucityl)-Glutaryl}-[hSer]W[Trp(5-Br)][Pro(4R-NH2)]E[dL]C[Api](DOTA)LIC[X1][dE](NH(1-deoxy-D-glucityl))-NH2; linker 7-11 via Pyridine(2,6-diCH2))
6 | < 10 | CC[C@H](C)[C@@H]1NC(=O)[C@H](CC(C)C)NC(=O)C2(CCOCC2)NC(=O)[C@@H](NC(=O)[C@@H](CC(C)C)NC(=O)[C@H](CCC(=O)O)NC(=O)[C@@H]2C[C@@H](N)CN2C(=O)[C@H](Cc2c[nH]c3ccc(Cl)cc23)NC(=O)[C@H](Cc2c[nH]c3ccccc23)NC(=O)[C@H](CC(=O)O)NC(=O)[C@@H](CCC(=O)NC[C@H](O)[C@@H](O)[C@H](O)[C@H](O)CO)NC(=O)COCCOCCNC(=O)CN2CCN(CC(=O)O)CCN(CC(=O)O)CCN(CC(=O)O)CC2)CSCc2cccc(n2)CSC[C@@H](C(=O)NC2CCN(CC(=O)N[C@H](CCC(=O)NC[C@H](O)[C@@H](O)[C@H](O)[C@H](O)CO)C(N)=O)CC2)NC1=O [GIP-018, DOTA-O2Oc-glu(AGLU)-Asp-Trp-5Clw-Tap-Glu-leu-[Cys(2Lut)-Thp-Leu-Ile-Cys]-APAc-glu(AGLU)-NH2] ({DOTA-AEEA}-[dE](NH(1-deoxy-D-glucityl))DW[Trp(5-Cl)][Pro(4R-NH2)]E[dL]C[Thp]LIC[X1][dE](NH(1-deoxy-D-glucityl))-NH2; linker 8-12 via Pyridine(2,6-diCH2))

same assay, conditions: pIC50 Category, competition with 20 nM GIP-057, 4° C., 1 hour

Row | SMILES | IC50 [nM]
7 | CC[C@H](C)[C@@H]1NC(=O)[C@H](CC(C)C)NC(=O)C2(CCN(C(=O)CN3CCN(CC(=O)O)CCN(CC(=O)O)CCN(CC(=O)O)CC3)CC2)NC(=O)[C@@H](NC(=O)[C@@H](CC(C)C)NC(=O)[C@H](CCC(=O)O)NC(=O)[C@@H]2C[C@@H](N)CN2C(=O)[C@H](Cc2c[nH]c3ccc(Br)cc23)NC(=O)[C@H](Cc2c[nH]c3ccccc23)NC(=O)[C@H](CC(=O)O)NC(=O)CN2CCC(NC(=O)CCCC(=O)NC[C@H](O)[C@@H](O)[C@H](O)[C@H](O)CO)CC2)CSCc2cccc(n2)CSC[C@@H](C(=O)NC2CCN(CC(=O)N[C@H](CCC(=O)NC[C@H](O)[C@@H](O)[C@H](O)[C@H](O)CO)C(N)=O)CC2)NC1=O [GIP-014, AGLU-Glutar-APAc-Asp-Trp-5Brw-Tap-Glu-leu-[Cys(2Lut)-Apc(DOTA)-Leu-Ile-Cys]-APAc-glu(AGLU)-NH2] ({NH(1-deoxy-D-glucityl)-Glutaryl}-[X1]DW[Trp(5-Br)][Pro(4R-NH2)]E[dL]C[Api](DOTA)LIC[X1][dE](NH(1-deoxy-D-glucityl))-NH2; linker 8-12 via Pyridine(2,6-diCH2)) | < 10
